Data taken from publication PMC10291553, “Exploring Structure–Activity Relationships in Photodynamic Therapy Anticancer Agents Based on Ir(III)-COUPY Conjugates” (Journal of Medicinal Chemistry, 2023).
Values joined by “and” are separate entries in the source; they are usually repeats but may differ in a detail not shown here. Equal values may be shown once. Read-outs that look alike come from different tables or passages of the source.

Legend:
[1] = tested on: A375; test: Photo- and cytotoxic activity determination (MTT), A375 cells; type: cell-based, human; conditions: normoxia; for A375 PI (phototherapeutic index), IC50 dark/IC50 irradiated: 520 nm, dark tested up to 100 μM; for IC50: 48 h drug-free medium
Source text: (§1) Having shown that the Ir(III)-COUPY conjugates can sensitize both type I and II ROS through spectroscopic techniques and readily internalize into living cells, their photocytotoxicity was screened in various cancer cell lines. This screening included two representative melanoma cell lines (human A375 and […] human SK-MEL-28) and cancer cells with resistance to the clinical drug cisplatin. For the latter, both sensitive and cisplatin-resistant ovarian cancer cells (A2780 and A2780cis) as well as HeLa cells, which also show a degree of chemoresistance to the platinum anticancer drug in vitro,[54] were used. For the determination of dark and light cytotoxicity, dose–response curves were assayed from both conditions to provide the correspondent IC50 values, which correspond to the concentration needed for inhibition of cell growth by 50%. Phototherapeutic index (PI) was calculated as the ratio of dark to light IC50 value for each compound.
(§2) A375, HeLa, and SK-MEL-28 cells were cultured in Dulbecco’s modified Eagle medium (DMEM) supplemented with 10% FBS, L-glutamine, and 1% penicillin–streptomycin. A2780 and A2780cis cells were grown in RPMI-1640 cell medium supplemented with 10% fetal bovine serum (FBS) and 2 mM L-glutamine. Acquired resistance to cisplatin in the A2780cis cell line was maintained by adding cisplatin 1 μM to culture medium every second passage. Cells were cultured in a humidified incubator at 310 K with 5% CO2 atmosphere and subcultured two or three times a week with appropriate densities and were confirmed to be mycoplasma-free using a standard Hoechst DNA staining method.
(§3) A2780, A2780cis, HeLa, A375, and SK-MEL-28 cells were maintained at logarithmic growth-phase and cultured in 96-well plates at a density of 5000 cells/well in complete medium for 24 h at 310 K, 5% CO2 in a humidified incubator. For hypoxia experiments, a hypoxia condition was set up by Tissue Culture Service at University of Murcia using nitrogen (N2) to displace O2 down to a minimum of 2% in a Forma Steri-Cycle i160 incubator (Thermo Fisher Scientific). Serial dilutions of the compounds were added at the final concentrations in the range of 0–100 μM in a final volume of 100 μL per well. A light-based treatment schedule was performed as follows: 1 h incubation with the compounds in the dark, followed by 1 h incubation under irradiation conditions by placing the Photoreactor EXPO-LED from Luzchem (Canada) fitted with green lamps (final light intensity applied of 1.5 mW/cm^2 at λmax = 520 nm) inside the CO2 incubator. All the cell culture plates subjected to light irradiation included untreated controls to verify that cell viability was not affected by light. Then, treatment-containing media was removed, and fresh media was added for a 48 h cell recovery period; the temperature throughout the experiment remained at 310 K. Dark control samples were placed in the same dark conditions and then kept incubated for 1 h in the dark in the humidified CO2 incubator. Medium was then aspirated by suction, cells were loaded with 50 μL of MTT solution (1 mg/mL) for additional 4 h and then removed, and 50 μL of DMSO was added to solubilize the purple formazan crystals formed in active cells. The absorbance was measured at 570 nm using a microplate reader (FLUOstar Omega), and the IC50 values were calculated based on the inhibitory rate curves using the following equation [drawing 4] 4 where I represents the percentage inhibition of viability observed, Imax is the maximal inhibitory effect, IC50 is the concentration that inhibits 50% of maximal growth, C is the concentration of the treatment, and n is the slope of the semi-logarithmic dose–response sigmoidal curves. The non-linear fitting was performed using SigmaPlot 14.0 software. All experiments were performed in three independent studies with n = 3 replicates per concentration level. For a detailed phototoxicity procedure, ref ([43]) includes technical explanations.

[2] = tested on: HeLa; test: Photo- and cytotoxic activity determination (MTT), HeLa cells; type: cell-based; conditions: normoxia; for HeLa PI (phototherapeutic index), IC50 dark/IC50 irradiated: 520 nm, dark tested up to 100 μM; for IC50: 48 h drug-free medium
Source text: as §1, §2, §3

[3] = tested on: A2780; test: Photo- and cytotoxic activity determination (MTT), A2780 cells; type: cell-based; conditions: normoxia; for A2780 PI (phototherapeutic index), IC50 dark/IC50 irradiated: 520 nm, dark tested up to 100 μM; for IC50: 48 h drug-free medium
Source text: as §1, §2, §3

[4] = tested on: A2780cis cells; test: Photo- and cytotoxic activity determination (MTT), A2780cis cells, normoxia or hypoxia; type: cell-based; conditions: for Partial inhibition (% of cell growth inhibition with respect to untreated controls), Hypoxia / Partial inhibition (% of cell growth inhibition with respect to untreated controls), Normoxia: 250 μM, 2 h incubation in the dark, 48 h drug-free recovery; for Hypoxia PI (phototherapeutic index) / Normoxia PI (phototherapeutic index): dark tested up to 250 μM; for A2780cis PI (phototherapeutic index), IC50 dark/IC50 irradiated: dark tested up to 100 μM
Outline: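 Green-light photocytotoxicity: 1 h dark preincubation with compound, 1 h light (520 nm, 1.5 mW/cm^2), 48 h recovery, MTT at 570 nm; dark controls run in parallel. IC50 fitted to inhibition curves.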

[5] = 1 h incubation + 1 h green light 520 nm, 1.5 mW cm^–2, read-out: A375 light IC50
[6] = kept in the dark, 2 h treatment, read-out: A375 dark IC50
[7] = 1 h incubation + 1 h green light 520 nm, 1.5 mW cm^–2, read-out: HeLa light IC50
[8] = kept in the dark, 2 h treatment, read-out: HeLa dark IC50
[9] = 1 h incubation + 1 h green light 520 nm, 1.5 mW cm^–2, read-out: A2780 light IC50
[10] = kept in the dark, 2 h treatment, read-out: A2780 dark IC50
[11] = A2780cis, hypoxia 2% O2, 520 nm
[12] = A2780cis, hypoxia 2% O2, dark, tested up to 250 μM, read-out: Hypoxia Dark IC50
[13] = A2780cis, normoxia 21% O2, 520 nm
[14] = A2780cis, normoxia 21% O2, dark, tested up to 250 μM, read-out: Normoxia Dark IC50
[15] = hypoxia, 520 nm, read-out: A2780cis Light 520 nm IC50 (microM) Hypoxia
[16] = hypoxia, dark, read-out: A2780cis Dark IC50 (microM) Hypoxia
[17] = normoxia, 1 h incubation + 1 h green light 520 nm, 1.5 mW cm^–2, 48 h drug-free medium, read-out: A2780cis light IC50
[18] = normoxia, dark, up to 250 microM, read-out: A2780cis Dark IC50 (microM) Normoxia
[19] = normoxia, kept in the dark, tested up to 100 μM, 2 h treatment, 48 h drug-free medium, read-out: A2780cis dark IC50

| Compound | A375 PI (phototherapeutic index), IC50 dark/IC50 irradiated [1] | IC50 [1, 5] | IC50 [1, 6] | HeLa PI (phototherapeutic index), IC50 dark/IC50 irradiated [2] | IC50 [2, 7] | IC50 [2, 8] | A2780 PI (phototherapeutic index), IC50 dark/IC50 irradiated [3] | IC50 [3, 9] | IC50 [3, 10] | Partial inhibition (% of cell growth inhibition with respect to untreated controls), Hypoxia ([4]; A2780cis, hypoxia) | Partial inhibition (% of cell growth inhibition with respect to untreated controls), Normoxia ([4]; A2780cis, normoxia) | Hypoxia PI (phototherapeutic index) [4, 11] | IC50 [4, 12] | Normoxia PI (phototherapeutic index) [4, 13] | IC50 [4, 14] | IC50 [4, 15] | IC50 [4, 16] | A2780cis PI (phototherapeutic index), IC50 dark/IC50 irradiated ([4]; normoxia, 520 nm) | IC50 [4, 17] | IC50 [4, 18] | other results |
| --- | --- | --- | --- | --- | --- | --- | --- | --- | --- | --- | --- | --- | --- | --- | --- | --- | --- | --- | --- | --- | --- |
| CCCCn1c2[n+](c3cc(C(=O)NCCCCCC(=O)NCCCNC(=O)C[n+]4ccc(/C(C#N)=C5/C=C(C)c6ccc(N(CC)CC)cc6O5)cc4)ccc31)[Ir-3]13([c]4ccccc4-c4[nH]c5ccccc5[n+]41)([c]1ccccc1-c1[nH]c4ccccc4[n+]13)[n+]1c-2ccc2ccccc21 [3d] | > 2.2 | 46 ± 4 µM | > 100 µM | > 50 | 2 ± 0.4 µM | > 100 µM | > 56 | 1780 ± 70 nM | > 100000 nM | 27 ± 4% | 21 ± 1% | > 131.6 and > 131 | > 250 µM | > 227.3 and > 227 | > 250 µM | 1.9 ± 0.2 µM | > 250 µM | > 91 | 1.1 ± 0.2 µM | > 250 µM | IC50 [4, 19]: > 100 µM |
| CCCCn1c2[n+](c3cc(C(=O)NC[C@H]4CC[C@H](C(=O)NCCCNC(=O)C[n+]5ccc(/C(C#N)=C6/C=C(C)c7ccc(N(CC)CC)cc7O6)cc5)CC4)ccc31)[Ir-3]13([c]4ccccc4-c4[nH]c5ccccc5[n+]41)([c]1ccccc1-c1[nH]c4ccccc4[n+]13)[n+]1c-2ccc2ccccc21 [3e] | > 5 | 19 ± 3 µM | > 100 µM | > 11 | 9.3 ± 0.8 µM | > 100 µM | > 53 | 1900 ± 200 nM | > 100000 nM | 12 ± 3% | 18 ± 1% | > 147.1 and > 147 | > 250 µM | > 268.8 and > 269 | > 250 µM | 1.7 ± 0.3 µM | > 250 µM | > 108 | 0.93 ± 0.04 µM | > 250 µM | IC50 [4, 19]: > 100 µM |
